Assay results taken from patent publication US4198504A, “[3-(Pyridinium)-7-(naphthyiridinyl carbonylamino)acetamido]cephalosporanic acid derivatives” (Bristol-Myers Company, priority 1978, dated 1980).

Legend:
S. aureus = assay: In vitro MIC, serial two-fold agar dilution, primary evaluation Gp (S. aureus, 6 strains); type: cell-based; conditions: CBPC = 100%; geometric mean of MICs; Mueller-Hinton agar
Experimental: (§1) Minimun inhibitory concentrations (MIC) were determined by the serial two-fold agar dilution method using Steers' apparatus on Mueller-Hinton agar plate against 31 test organisms for the primary screening and also against 64 strains of Pseudomonas aeruginosa for the secondary evaluation. The results are shown in Table 1 in terms of relative activity with respect to the standard compound CBPC (carbenicillin) which was set at 100%. In each group the calculation was based on the geometric mean of the observed MICs.
*GP = S. aureus (6 strains);

[1] = test system: E. coli (9), Klebsiella sp. (2), Pr. mirabilis (1), Sal. enteritidis (1); assay: In vitro MIC, serial two-fold agar dilution, primary evaluation Gn-I (E. coli, Klebsiella sp., Pr. mirabilis, Sal. enteritidis); type: cell-based; conditions: CBPC = 100%; geometric mean of MICs; Mueller-Hinton agar
Experimental: as §1
GnI = E. coli (9), Klebsiella sp. (2), Pr. mirabilis (1), Sal.

[2] = test system: Ent. cloacae (3), Pr. vulgaris (1), Pr. morganii (1), S. marcescen (1); assay: In vitro MIC, serial two-fold agar dilution, primary evaluation Gn-II (Ent. cloacae, Pr. vulgaris, Pr. morganii, S. marcescens); type: cell-based; conditions: CBPC = 100%; geometric mean of MICs; Mueller-Hinton agar
Experimental: as §1
GnII = Ent. cloacae (3), Pr. vulgaris (1), Pr. morganii (1), S. marcescen

Ps. aeruginosa = assay: In vitro MIC, serial two-fold agar dilution, primary evaluation Ps (6 strains); type: cell-based; conditions: CBPC = 100%; geometric mean of MICs; Mueller-Hinton agar
Experimental: as §1
Ps. = Ps. aeruginosa (6).

Pseudomonas aeruginosa = assay: In vitro MIC, serial two-fold agar dilution, secondary evaluation against Pseudomonas aeruginosa strains; type: cell-based; conditions: CBPC = 100%; geometric mean of MICs; 61-64 strains
Experimental: as §1

[3] = test system: Staphylococcus aureus Smith; assay: In vivo efficacy, experimental infection in mice, intramuscular treatment, Staphylococcus aureus Smith; set-up: species or system Staphylococcus aureus (infected mice); conditions: im, 120 h, I.M., 100×LD50 challenge i.p., 5 days, read-out: PD50 Staphylococcus aureus Smith
Experimental: (§2) The in vivo efficacy was evaluated by intramuscular treatment against three kinds of experimental infection in mice.
(§3) The in vivo tests were carried out using the following three pathogenic organisms:
Staphylococcus aureus Smith
(§4) Mice were challenged intraperitoneally with approximately a 100×LD50 dose of the pathogens in a 5% mucin suspension. The mice were treated with test compound by I.M. route immediately after the bacterial challenge.

Escherichia coli Juhl = assay: In vivo efficacy, experimental infection in mice, intramuscular treatment, Escherichia coli Juhl; set-up: species or system Escherichia coli (infected mice); conditions: im, 120 h, I.M., 100×LD50 challenge i.p., 5 days, read-out: PD50 Escherichia coli Juhl
Experimental: as §2, §3, §4

[4] = test system: Pseudomonas aeruginosa A9843; assay: In vivo efficacy, experimental infection in mice, intramuscular treatment, Pseudomonas aeruginosa A9843; set-up: species or system Pseudomonas aeruginosa (infected mice); conditions: A9843, im, 120 h, I.M., 100×LD50 challenge i.p., 5 days, read-out: PD50 Pseudomonas aeruginosa A9843
Experimental: as §2, §3
Pseudomonas aeruginosa A9843
as §4

[5] = Antibiotic blood levels in mice following intramuscular administration (paper disc-agar diffusion, Escherichia coli NIHJ as assay organism); type: in vivo; conditions: mouse, im, I.M., 20 mg./kg.; for half-life: read-out: Blood level, Half-life; for Cmax: read-out: Blood level, Peak Concentration
Experimental: Antibiotic blood levels were determined in mice following intramuscular administration of the test compounds at 20 mg./kg. The blood samples were collected from the orbital sinuses into heparinized capillary tubes at 15, 30, 60 and 120 minutes after administration. The antibiotic concentration was determined by the paper disc-agar diffusion method using Escherichia coli NIHJ as the assay organism.

| Structure (SMILES) | In vitro relative activity, primary evaluation Gp (6) (S. aureus) [%] | In vitro relative activity, primary evaluation Gn-I (13) [1] [%] | In vitro relative activity, primary evaluation Gn-II (6) [2] [%] | In vitro relative activity, primary evaluation Ps (6) (Ps. aeruginosa) [%] | In vitro relative activity, secondary, Pseudomonas aeruginosa (61-64) (Pseudomonas aeruginosa) [%] | ED50 [3] [mg/kg] | ED50 (Escherichia coli Juhl) [mg/kg] | ED50 [4] [mg/kg] | half-life [5] [h] | Cmax [5] [ng/mL] |
| --- | --- | --- | --- | --- | --- | --- | --- | --- | --- | --- |
| NC(=O)c1cc[n+](CC2=C(C(=O)[O-])N3C(=O)C(NC(=O)[C@H](NC(=O)c4cnc5cccnc5c4O)c4ccc(O)cc4)C3SC2)cc1C(=O)O (stereo partly drawn) [BB-S592, 7-[D-α-(4-Hydroxy-1,5-naphthyridine-3-carboxamido)-α-(4-hydroxyphenyl)acetamido]-3-(4-carbamoyl-3-carboxypyridinium)methyl-3-cephem-4-carboxylate] | 56 | 121 | 11 | 594 | 695 | 4.6 | 6.25 | 38 | 0.917 | 12000 |
| O=C([O-])C1=C(C[n+]2ccc(CCS(=O)(=O)O)cc2)CSC2C(NC(=O)[C@H](NC(=O)c3cnc4cccnc4c3O)c3ccc(O)c(Cl)c3)C(=O)N12 (stereo partly drawn) [BB-S605, 7-[D-α-(4-Hydroxy-1,5-naphthyridine-3-carboxamido)-α-(3-chloro-4-hydroxyphenyl)acetamido]-3-(4-sulfoethylpyridinium)-methyl-3-cephem-4-carboxylate] | 40 | 83 | 40 | 1310 | 1300 | 3.1 | 3.1 | 8.4 | 0.9 | 9400 |
| O=C(O)Cc1cc[n+](CC2=C(C(=O)[O-])N3C(=O)C(NC(=O)[C@H](NC(=O)c4cnc5cccnc5c4O)c4ccc(O)cc4)C3SC2)cc1 (stereo partly drawn) [BB-S591, 7-[D-α-(4-Hydroxy-1,5-naphthyridine-3-carboxamido)-α-(4-hydroxyphenyl)acetamido]-3-(4-carboxymethylpyridinium)methyl-3-cephem-4-carboxylate] | 31 | 167 | 18 | 883 | 1160 | 6.15 | 6.25 | 12.5 | 0.9 | 11000 |
| O=C([O-])C1=C(C[n+]2cccc(S(=O)(=O)O)c2)CSC2C(NC(=O)[C@H](NC(=O)c3cnc4cccnc4c3O)c3ccccc3)C(=O)N12 (stereo partly drawn) [BB-S607, 7-[D-α-(4-Hydroxy-1,5-naphthyridine-3-carboxamido)-α-phenylacetamido]-3-(3-sulfopyridinium)methyl-3-cephem-4-carboxylate] | 35 | 24 | 13 | 883 | 695 | 4.5 |  | 23 | 1 | 10000 |
| O=C([O-])C1=C(C[n+]2ccccc2C(=O)O)CSC2C(NC(=O)[C@H](NC(=O)c3cnc4cccnc4c3O)c3ccc(O)cc3)C(=O)N12 (stereo partly drawn) [BB-S585, 7-[D-α-(4-Hydroxy-1,5-naphthyridine-3-carboxamido)-α-(4-hydroxyphenyl)acetamido]-3-(2-carboxypyridinium)methyl-3-cephem-4-carboxylate] | 20 | 53 | 4 | 297 | 466 | 10 | 7.4 | 86 | 1 | 5800 |
| O=C([O-])C1=C(C[n+]2cccc(C(=O)O)c2)CSC2C(NC(=O)[C@H](NC(=O)c3cnc4cccnc4c3O)c3ccc(O)cc3)C(=O)N12 (stereo partly shown) [BB-S579] | 28 | 230 | 22 | 2880 | 2780 | 2 | 1.8 | 6.4 | 1.25 | 12000 |
| O=C(O)C=Cc1ccc[n+](CC2=C(C(=O)[O-])N3C(=O)C(NC(=O)[C@H](NC(=O)c4cnc5cccnc5c4O)c4ccc(O)c(Cl)c4)C3SC2)c1 (stereo partly drawn) [BB-S602, 7-[D-α-(4-Hydroxy-1,5-naphthyridine-3-carboxamido)-α-(3-chloro-4-hydroxyphenyl)acetamido]-3-(3-carboxyvinylpyridinium)-methyl-3-cephem-4-carboxylate] | 58 | 94 | 63 | 2080 | 1530 | 0.8 | 1.4 | 8.4 | 1 | 8000 |
| O=C([O-])C1=C(C[n+]2cccc(C(=O)O)c2)CSC2C(NC(=O)[C@H](NC(=O)c3cnc4cccnc4c3O)c3ccc(O)c(Cl)c3)C(=O)N12 (stereo partly drawn) [BB-S600, 7-[D-α-(4-Hydroxy-1,5-naphthyridine-3-carboxamido)-α-(3-chloro-4-hydroxyphenyl)acetamido]-3-(3-carboxypyridinium)-methyl-3-cephem-4-carboxylate] | 70 | 107 | 30 | 2340 | 2500 | 2 | 2.2 | 6.2 | 1.17 | 6200 |
| O=C(O)CCc1ccc[n+](CC2=C(C(=O)[O-])N3C(=O)C(NC(=O)[C@H](NC(=O)c4cnc5cccnc5c4O)c4ccc(O)cc4)C3SC2)c1 (stereo partly shown) [BB-S619] | 31 | 88 | 18 | 725 | 1600 |  | 3.2 | 4.6 | 0.917 | 10000 |
